PMC9247345 (Journal of medicinal chemistry, 2011)
Like-named read-outs stand apart in the source and are kept apart here. Each block holds one molecule with its values, some of them ahead of it.

Experiments:
[1] = system: P. falciparum W2 (chloroquine and pyrimethamine resistant); assay: in vitro antimalarial activity against W2; assay type: cell-based; settings: for times less active against W2: in comparison to reference compound 17; for EC50: Plasmodium falciparum; for fold decrease in antimalarial activity: W2, compared to compound 5; for antimalarial activity in words: W2
[2] = system: P. falciparum TM90-C2B (chloroquine, mefloquine, pyrimethamine and atovaquone resistant); assay: in vitro antimalarial activity against TM90-C2B; assay type: cell-based; settings: for fold decrease in antimalarial activity / antimalarial activity in words: TM90-C2B; for fold decrease in antimalarial activity: compared to compound 5; for fold more potent against TM90-C2B: compared to compound 27; for EC50: Plasmodium falciparum
P. berghei = settings: rodent malaria models; cited from earlier work

Structure (SMILES): CCc1c(C)[nH]c2cc(OCCCN3CCN(c4ccccc4)CC3)c(Cl)cc2c1=O [Compound 26]
times less active against W2 [1]: approximately four-fold less active

EC50 ([1]; W2, read-out: EC50 W2, Table 1, PEQ analogs): 0.53 nM | EC50 ([1]; W2, read-out: EC50 W2, Table 2, 3-aryl PEQs): 0.53 nM
Structure (SMILES): O=C1C(O)=C([C@H]2CC[C@H](c3ccc(Cl)cc3)CC2)C(=O)c2ccccc21 [ATO, atovaquone, reference compound]

Structure (SMILES): COC(=O)c1c[nH]c2cc(OC)c(Cl)cc2c1=O [Compound 14]
fold decrease in antimalarial activity [1]: ≥ 70 fold | fold decrease in antimalarial activity [2]: ≥ 70 fold

Structure (SMILES): CCCCc1cc2c(=O)cc(C)[nH]c2cc1OCCOc1ccccc1 [Compound 15]
fold decrease in antimalarial activity [1]: 4000 fold | fold decrease in antimalarial activity [2]: 4 fold

Structure (SMILES): CCc1c(C)[nH]c2cc(OCCOc3ccccc3)c(OC)cc2c1=O [Compound 19]
fold more potent against TM90-C2B [2]: approximately 3 fold

Structure (SMILES): CCc1c(C)[nH]c2cc(OCOC)c(Cl)cc2c1=O [Compound 20]
times less active against W2 [1]: approximately four-fold less active

Structure (SMILES): CCc1c(C)[nH]c2cc(OCCOc3ccccc3)c(C)cc2c1=O [Compound 18]
fold more potent against TM90-C2B [2]: approximately 3 fold

Structure (SMILES): CCCCc1cc2c(=O)c(-c3cccnc3)c(C)[nH]c2cc1OCCOc1ccccc1 [Compound 33]
antimalarial activity in words [1]: moderate activity in low μM or high nM range | antimalarial activity in words [2]: moderate activity in low μM or high nM range

Structure (SMILES): CCCCc1cc2c(=O)c(-c3ccncc3)c(C)[nH]c2cc1OCCOc1ccccc1 [Compound 32]
antimalarial activity in words [1]: moderate activity in low μM or high nM range | antimalarial activity in words [2]: moderate activity in low μM or high nM range

Structure (SMILES): CCCCc1cc2c(=O)c(C(=O)OC)c[nH]c2cc1OCCOc1ccccc1 [Compound 5, reference compound]
fold stronger inhibition of W2 than TM90-C2B ([1]; W2 versus TM90-C2B): approximately 220 fold | ED50, causal prophylactic and blood schizonticidal activity (P. berghei): 0.05 mg/kg

Structure (SMILES): C[C@H]1[C@@H](O)O[C@@H]2O[C@@]3(C)CC[C@H]4[C@H](C)CC[C@@H]1[C@@]24OO3 [DHA, Dihydroartemisinin, reference compound]
EC50 ([1]; W2, read-out: EC50 W2): 1.8 nM | EC50 ([2]; TM90, read-out: EC50 TM90-C2B, Table 1, PEQ analogs): 0.9 nM | EC50 ([2]; TM90, read-out: EC50 TM90-C2B, Table 2, 3-aryl PEQs): 0.9 nM

Structure (SMILES): CCCCc1cc2c(=O)c(-c3c(C)noc3C)c(C)[nH]c2cc1OCCOc1ccccc1 [Compound 43]
antimalarial activity in words [2]: approximately five times less potent
